This data set in a line: Pharmacokinetics of single intraperitoneal injection in mice (LC-MS/MS, plasma and brain tissue). In kind it is in vivo, male C57BL/6J mice. The following applies: i.p. 30 mg/kg; for MRT last: read-out: MRT(0-t); for MRT inf: read-out: MRT(0-∞). As for the experimental part:
LC-MS/MS method was used to measure the concentration of LK-2 in plasma and brain tissue. LK-2 was dissolved in 0.9% saline to a concentration of 1 mg/ml. Blood samples were collected at 5 min, 15 min, 30 min, 1.0 h, 2.0 h, and 4.0 h time points into EDTA-coated tubes, then centrifuged at 2,000 g for 15 min to generate plasma samples. Brain tissue samples were collected after perfusion with saline through the left ventricle, and the brain tissue were diluted and homogenized with 5 volumes (w:v) of 0.9% NaCl. LC-MS/MS method for quantification of LK-2 in plasma and brain tissue samples was developed using LC-MS/MS-T_API4000 instrument. The general sample processing procedure is as follows. • 1) 30 μl plasma samples were divided, standard samples were calibrated with quality control, and single blank and double blank samples were added into 1.5 ml tubes, respectively. 40 μl brain tissue homogenate were added to each well of a 96-well plate, respectively, and standard samples were calibrated with quality control, single blank and double blank samples were aliquoted. • 2) Each sample (excluding double blanks) was mixed with 150 μl (plasma samples) or 200 μl (brain tissue homogenate) of internal standard solution [a 6-in-1 internal standard solution (100 ng/ml each of labetalol, tolbutamide, verapamil, dexamethasone, glipizide, and celecoxib dissolved in methanol) and 40 mM dibutyl acetic acid] to terminate the reaction (double blank samples were terminated with 40 mM dibutyl acetic acid in methanol). The mixture was then thoroughly vortexed for at least 15 s and centrifuged at 12000 g (plasma samples) or 3220 g (brain homogenate) at 4° C. for 15 minutes. • 3) 65 μl of the supernatant was evenly transferred into a 96-well plate and centrifuge at 3220 g, 4° C. for 5 minutes. All procedures were performed on wet ice. All the supernatant was directly injected for LC-MS/MS analysis. The chromatographic column was ACQUITY UPLC BEHC18 with 2.1×100 mm, 1.7 μm. The column temperature was at 40° C. and the flow rate was 0.4 mL/min. The mobile phase A was 0.001% NH3·H2O, 0.18 mM dibutylamine acetate aqueous solution, and mobile phase B was 10 mM N,O-dimethylhydroxylamine and 3 mM NH4OAc solution, acetonitrile/aqueous solution (v:v, 50:50). Standard curves were prepared by spiking compounds into control plasma and brain to determine drug concentrations. Pharmacokinetic parameters and average concentrations at each time point were calculated using DAS 2.0 software through non-compartmental analysis (NCA), as shown in Table 1.

Setting [1] is: male, C57BL/6J, mouse, ip, Brain tissue.
Setting [2] is: male, C57BL/6J, mouse, ip, Plasma.

Like-named read-outs stand apart in the source and are kept apart here.

As usually defined, the AUC(0-inf) is total exposure, with the tail of the curve extrapolated. The AUC(0-t) is the area under the concentration-time curve up to a stated or last time point. A lower AUC(0-t) goes with less exposure. Usually Cmax stands for the highest concentration seen after dosing. Broadly, the Tmax is the time at which the peak concentration occurs. Usually half-life stands for the time needed for the level to fall by half in the phase considered. Read a high half-life as slow loss. Under “Brain tissue”, `O=C(O)C1CN(C(c2ccccc2)P(=O)(O)O)CCN1` (stereo not shown) [LK-2] registered a CL of 634.03 ± 53.28 mL/min/kg and a V of 124.755 ± 15.127 L/kg. Under “Plasma”, this compound gave a CL of 7.13 ± 0.317 mL/min/kg and a V of 0.356 ± 0.021 L/kg. Also, where the note is “male, C57BL/6J, mouse, brain/plasma, ip, read-out: Brain/plasma AUC ratio”, the Kp is 0.0127 ± 0.0006. Moreover, under setting [1], the AUC(0-inf) stood at 793 ± 68 ng·h/mL, the AUC(0-t) was 523 ± 27.9 ng·h/mL, the Cmax came out at 236 ± 31.9 ng/mL and the Tmax was determined as 30 min. Under setting [1], the half-life is 138 ± 26.5 min, the MRT last was determined as 106 ± 4.68 min and the MRT inf is 218 ± 36.7 min. Also, under setting [2], the AUC(0-inf) was determined as 70300 ± 3130 ng·h/mL, the exposure AUC(0-t) stood at 69800 ± 3120 ng·h/mL, the highest level (Cmax) was 92700 ± 8310 ng/mL and the Tmax came out at 30 min. Besides, under setting [2], the half-life is 34.6 ± 0.9 min, the MRT last is 41.6 ± 1.14 min and the MRT inf is 43.3 ± 1.08 min.

For the origin of these results see patent US20250120988A1, “SMALL MOLECULE COMPOUND FOR TREATING ISCHEMIC STROKE, ITS PREPARATION METHOD, AND APPLICATION” (SHANGHAI SIXTH PEOPLE'S HOSPITAL, priority 2023, published 2025).
